# Experimental data from patent publication US6770738B1, “Higher order structure and binding of peptide nucleic acids” (ISIS Pharmaceuticals, Inc., priority 1992, dated 2004).
# Assays:
# [1] = system: RNA target 5′-TAGTTGTGACGTACA-3; assay: Equilibrium and rate constants for duplexes with RNA (gel-shift); type: binding; conditions: [Na+] 0.1 M, 37 ° C.; 100 mM NaCl, 10 mM phosphate, 1 mM EDTA, pH 7.0; gel-shift with 32P-labeled RNA
# [2] = system: complementary RNA; assay: Melting temperature of complexes with complementary RNA; type: binding; conditions: 100 mM NaCl, 10 mM Na-phosphate, 0.1 mM EDTA, pH 7; 4 μM of each strand
# Protocol: (§1) The thermal stability measured as the melting temperature, Tm, of complexes between the pentadecamer, H-TGTACGTCACAACTA-NH2 (SEQ ID NO:10) and the complementary deoxyoligonucleotide 3′-ACATGCAGTGTTGAT (SEQ ID NO:47) (termed anti-parallel orientation: amino terminal of the PNA complementary to the 3′-end of the oligonucleotide) was 69.5° C. (see Table II), whereas the Tm of the corresponding PNA-DNA complex in parallel orientation was 56.1° C. The Tm for the PNA-RNA complexes was 72.3 and 51.2° C., respectively (see Table II). The orientation preference was further settled by using two decamer PNAs, and hybridizing these to complementary oligonucleotides in both orientations. The anti-parallel orientation was preferred in all cases (see Table II). Furthermore, it is noteworthy that virtually identical Tms were obtained regardless of which strand is the PNA and which is the DNA (see Table II, 2nd & 3rd row).
# [3] = system: complementary RNA; assay: Thermodynamics of duplex formation with RNA; type: binding
# Protocol: (§2) Thermodynamics parameters for hybridization can be extracted from thermal stability measurements when these are performed at varying concentrations of the complexes, or from the shape of the thermal denaturation curves. Both methods were used to determine ΔH°, ΔS° and ΔG° for formation of the PNA/RNA, DNA/RNA, PNA/DNA and DNA/DNA duplexes (Table III). It is remarkable that the decrease in entropy is almost identical for the formation of DNA/DNA and PNA/DNA duplexes and that both reactions are strongly enthalpy driven.
# [4] = system: complementary deoxyoligonucleotide; assay: Melting temperature of complexes with complementary DNA; type: binding; conditions: 100 mM NaCl, 10 mM Na-phosphate, 0.1 mM EDTA, pH 7; 4 μM of each strand
# Protocol: as §1
# [5] = system: complementary DNA; assay: Thermodynamics of duplex formation with DNA; type: binding
# Protocol: as §2
# [6] = system: pT9CT9C plasmid linearized by CfrlOI; assay: Site-specific S1 nuclease digestion of plasmid with two PNA sites complexed with PNA; type: biochemical; conditions: 30 units S1 nuclease; target sites are for T5CT4
# Excerpt: was cloned into the Sal1 site of the pUC19 plasmid. This plasmid, which contained two binding sites for PNA H-T5CT4-LysNH2 (SEQ ID NO:6) separated by six base pairs, was designated pT9CT9C. Strand displacement in the two T5CT4 sites led to opening of the entire region, including the sequence GTCGAC/GACGAC, providing a substrate for the S1 nuclease in both strands. As control, a pT9C-5 plasmid was used, which carried only one T5CT4 (SEQ ID NO:6) insert cloned into the SalI site of the pUC19 plasmid.
# cloned in the Sal1 site of the pUC19 polylinker. The pT9C-5 plasmid carried the single insert A5GA4/CT5 (SEQ ID NO:4) cloned in the same site. The PNA-DNA complexes were prepared as described in Example 2 with the only difference being the duration of the incubation was 2 hours. Digestion by 30 units of the S1 nuclease was performed in the same buffer as described in Example 2 with two exceptions, lanes 2 and 4. In lane 2, 15 units of the enzyme were used, whereas in lane 4 200 mM NaCl and 1 mM of ZnSO4 were added to the buffer. Lane 1: the reference band obtained by digestion with the BamHI restriction enzyme of the pUC 19 plasmid linearized by the CfrlOI restriction enzyme. Lanes 2-4 site-specific digestion by the S1 nuclease of the linearized pT9C plasmid complexed with PNA H-T5CT4-LysNH2 (SEQ ID NO:6). Lanes 5-7: various controls. Lane 8: the same experiment as in lane 3, but using PNA T10 (SEQ ID NO:2) instead of T4CT5 (SEQ ID NO:8). Lane 9: the same experiment as in lane 3, but using PNA T2CT2CT4 (SEQ ID NO:1) instead of T4CT5 (SEQ ID NO:8). Lane 10: the same experiment as in lane 3, but using the pT9C-5 plasmid instead of the pT9C. In the header PNA T5CT4 (SEQ ID NO:6) is labelled as 1, T10 (SEQ ID NO:2) as 2 and T2CT2CT4 (SEQ ID NO:1) as 3.
# The bands observed by gel electrophoresis have the same position and width as the band created by the BamHI restriction enzyme. […] Moreover, under the much milder S1 nuclease treatment necessary to generate the data for the pT9CT9C, the yield of double-stranded breaks in the pT9C-5 plasmid was extremely low (lane 10).
# [7] = system: 264 bp EcorI/PvuII fragment of pT8C2A8G2; assay: KMnO4 and DMS probing of PNA binding to double-stranded DNA; conditions: pH 7.5, 5 μM PNA, compared to pH 6.5 and 5.5
# Protocol: Probing was effected in 100μ buffer (S1: 100 mM NaCl, 1 mM ZnSO4, 50 mM NaAc, pH 4.5; KMnO4/dimethyl sulphate (DMS): 10 mM Na-cacodylate, 1 mM EDTA, pH 7.0 or as other wise noted) containing about 200 cps ^32P-labeled DNA fragment, 0.5 μg calf thymus DNA and the desired amount of PNA. Following a preincubation for 60 min at 37° C., the probing reagent was added and the incubation was continued at room temperature. The reactions were terminated by the addition of a stop-buffer. The DNA was precipitated by addition of 200 μL. 2% KAc in 96% EtOH and was analyzed by electrophoresis in 10% polyacrylamide sequencing gels. Radioactive DNA bands were visualized by autoradiography using amplifying screens and Agfa curix RPA X-ray films exposed at −70° C.
# Probing conditions were: S1: 0.5 U/μl, 5 min. stopped with 3 μl 1 M EDTA; KMnO4: 1 mM, 15 sec. stopped with 50 μl 1M […], 1.5 M NaAc, pH 7.0; DMS: 1% DMS, 15 sec., stopped as for KMnO4 probing. Samples probed with DMS or KMnO4 were treated with piperidine (0.5 M, 90° C., 20 min.) prior to gel analysis.
# For this example the 264 bp EcorI/PvuII fragment of pT8C2A8G2 was used that was 3′-^32P-end-labeled at the EcorI sit. Probing was effected as per the protocols of Example 12. The results are shown in FIG. 12 where in lanes 1 & 9 are controls without PNA. Lanes 1-7 are KMnO4 probing while lanes 9-15 are DMS probing. […]
# [8] = system: A4GA2GA2 target (pA8G2KS/T3, pT8C2KS/T7 RNA polymerase); assay: Transcription elongation arrest using T3 or T7 RNA polymerase, mixed A/G PNA targets; type: biochemical; conditions: compared to Example 22
# Protocol: The complex between the desired PNA and the desired DNA (100 ng) cleaved with the desired restriction enzyme was formed by incubation in 14 μL 10 mM Tris-HCl, 1 mM EDTA, (pH 7.4) buffer for 60 min at 37° C. Subsequently 4 μL 5× concentrated polymerase buffer (0.2 M Tris-HCl, pH 8.0, 125 mM NaCl, 40 mM MgCl2 10 mM spermidine) was added together with 15 U of RNA polymerase and ATP (10 μM), CTP (10 mM), UTP (1 mM) and ^32P-UTP (0.1 μCi). The incubation was continued for 10 min. Following ethanol precipitation, the RNA was analyzed by electrophoresis in polyacrylamide sequencing gels, and radialabeled RNA bands were visualized by autoradiography (using Agfa Curix RPI X-ray films and intensifying screens). Quantitation was performed by densitometric scanning using a Molecular Dynamics laser scanner and the ImageQuant™ software.
# Samples identical to those used for Example 20 were analyzed by electrophoresis in a polyacrylamide sequencing gel. The results are shown in FIG. 23 where, Lanes 1-4: pA10KS/T3 RNA polymerase; lanes 5-8: pT10KS/T7 RNA polymerase; lanes 9-12: pA8G2KS/T3 RNA polymerase lanes 13-16: pT8C2KST7 RNA polymerase. The plasmid used in the samples of lanes 1-3 was cleaved with Xbal, that in lanes 6-8 with Pst1, that in lanes 9-11 with BamH1 and that in lanes 14-16 with HindIII. Lanes 1, 8, 9 & 16 are controls without PNA. […]
# [9] = system: 5′d(GAGAGGAAAA); assay: Melting temperature of complex with decamer; type: binding; conditions: pH 7
# Protocol: (§3) The dimer prepared in Example 53 was incorporated into PNA H-TT(detT-idaT)CCTCTC-LysNH2 (SEQ ID NO:53) generally in accordance with Example 1. The melting temperatures, Tm, of complexes between this PNA and decamers 5′d(AAAAGGAGAG) (SEQ ID NO:54) and 5′d(GAGAGGAAAA) (SEQ ID NO:55) were 55° C. and 43.5° C., respectively, at pH 7. By comparison, the Tm of complexes between PNA H-TTTCCTCTC-LysNH2 (SEQ ID NO:56), prepared generally in accordance with Example 1, and these decamers was 58.5° C. and 40.5° C., respectively, at pH 7.
# [10] = system: 5′d(AAAAGGAGAG); assay: Melting temperature of complex with decamer; type: binding; conditions: pH 7
# Protocol: as §3
# [11] = 8 μM, average of the two methods
# [12] = 8 μM, fit to modified two state model
# [13] = 8 μM, linear plots of 1/TM versus log (concentration)
# [14] = fit to modified two state model
# [15] = fit to modified two state model, 100 mM NaCl, 10 mM Na-phosphate, 0.1 mM EDTA, pH 7.0
# [16] = linear plots of 1/TM versus log (concentration)
substance,measurement,setting,value
"DNA TGTACGTCACAACTA: DNA oligonucleotide 5′-TGTACGTCACAACTA-3′ as first strand of reference duplexes (DNA, backbone and methylation of C not given here) [reference compound]",Kd,[1],2 nM
same,"Melting temperature Tm, DNA:RNA",[2],50.6 °C
same,TM (average of the two methods),[3]; [11],50.0 °C
same,TM (melting curve fit),[3]; [12],49.8 °C
same,TM (1/TM versus log concentration),[3]; [13],50.1 °C
same,ΔG°37 (average of the two methods),[3]; average of the two methods,-12.6 kcal/mol
same,ΔH° (average of the two methods),[3]; average of the two methods,-111.5 kcal/mol
same,ΔS° (average of the two methods),[3]; average of the two methods,−318.9 eu
same,ΔG°3 (melting curve fit),[3]; [14],−11.8
same,ΔS° (melting curve fit),[3]; [14],−264.9 eu
same,ΔH° (melting curve fit),[3]; [15],-94.0 kcal/mol
same,ΔG°37 (1/TM versus log concentration),[3]; [16],−13.3 kcal/mol
same,ΔH° (1/TM versus log concentration),[3]; [16],−128.9 kcal/mol
same,ΔS° (1/TM versus log concentration),[3]; [16],−372.8 eu
same,"Melting temperature Tm, DNA:DNA",[4],53.3 °C
same,TM (average of the two methods),[5]; [11],53.5 °C
same,TM (melting curve fit),[5]; [12],53.6 °C
same,TM (1/TM versus log concentration),[5]; [13],53.5 °C
same,ΔG°37 (average of the two methods),[5]; average of the two methods,-13.1 kcal/mol
same,ΔH° (average of the two methods),[5]; average of the two methods,-98.4 kcal/mol
same,ΔS° (average of the two methods),[5]; average of the two methods,−275.1 eu
same,ΔG°3 (melting curve fit),[5]; [14],−12.7
same,ΔS° (melting curve fit),[5]; [14],−253.9 eu
same,ΔH° (melting curve fit),[5]; [15],-91.5 kcal/mol
same,ΔG°37 (1/TM versus log concentration),[5]; [16],−13.4 kcal/mol
same,ΔH° (1/TM versus log concentration),[5]; [16],−105.3 kcal/mol
same,ΔS° (1/TM versus log concentration),[5]; [16],−296.2 eu
H-T2CT2CT4LysNH2 [PNA H-T2CT2CT4-LysNH2],S1 nuclease digestion of pT9CT9C plasmid complexed with PNA,[6],very weak digestion
same,strand displacement binding (KMnO4 and DMS probing),[7],Very little binding
H-T4CT2CT2LysNH2 [PNA H-T4CT2CT2LysNH2],transcription arrest efficiency,[8],much less efficient
H-TT(detT-idaT)CCTCTC-LysNH2 [PNA H-TT(detT-idaT)CCTCTC-LysNH2],melting temperature Tm,[9],43.5 °C
same,melting temperature Tm,[10],55 °C
H-TTTCCTCTC-LysNH2 [PNA H-TTTCCTCTC-LysNH2],melting temperature Tm,[9],40.5 °C
same,melting temperature Tm,[10],58.5 °C
